# In paper PMC10350924, “Design, Synthesis, and Pharmacological Characterization of a Potent Soluble Epoxide Hydrolase Inhibitor for the Treatment of Acute Pancreatitis” (Journal of Medicinal Chemistry, 2023):
# Tests used:
# [1] = In vivo pharmacokinetic profile in mice after i.p. administration; settings: mouse, plasma, ip, 10 mg/kg i.p., single dose
# Method: For analysis of plasma levels of 28, mice (6 per group) received 10 mg/kg i.p. injection in a volume of 500 μL of DMSO 2% in saline. After selected time points, the mice were sacrificed (CO2 atmosphere) and blood (approximately 0.7–0.9 mL) was collected by intracardiac puncture using citrate as an anticoagulant. Then, plasma was obtained by centrifugation at 800g at 4 °C for 10 min and immediately frozen at −80 °C. The analyses were performed using a Shimadzu Nexera UHPLC (Kyoto, Japan) consisting of two LC-30AD pumps, a SIL-30AC autosampler, a CTO-20AC column oven, and a CBM-20A controller. Chromatographic conditions have previously been reported in the Chemical and Metabolic Stability section. The chromatographic system was coupled online to a triple quadrupole LCMS-8050 (Shimadzu) equipped with an electrospray ionization (ESI) source operating in positive mode. Quantification was performed in scheduled multiple reaction monitoring (MRM) mode. The transitions (Table S2) were m/z 456 > 149.2 (quantifier ion), 456 > 166.2 (qualifier ion) for compound 28, and m/z 458 > 149.2 (quantifier ion), 458 > 166.2 (qualifier ion) for IS. Dwell time, interface temperature, DL temperature, and heat block temperature were set to 100 ms, 300, 250, and 350 °C, respectively. Nebulizing gas, heating gas, and drying gas flow were set to 3, 10, and 10 L min^–1, respectively. All of the data was collected in the centroid mode and acquired and processed using Lab Solution workstation software. Stock solutions of 28 and IS were prepared in DMSO (1 mg mL^–1). The standards of 28 were prepared by dilution of the stock solution with methanol to obtain the working stock solutions in plasma of the following concentrations: 0.2, 0.5, 1, 5, 10, 20, and 50 ng mL^–1 for calibration curve. Calibration standards were prepared by spiking 100 μL of mouse plasma with a suitable working solution of 28 and IS to obtain a final concentration of 5 ng mL^–1 of the IS in each sample. For the extraction of 28 from mouse plasma, the method of protein precipitation was employed. Briefly, the frozen plasma samples were thawed at room temperature. 200 μL of ice-cold acetonitrile containing IS was added to 100 μL of plasma. The extraction was performed by vortex mixing for 5 min, followed by centrifugation for 10 min at 14,600 rpm at 25 °C. The supernatants were collected, filtered by […] RC-membranes, and then injected in UHPLC-MS/MS. […] The maximum concentration (Cmax) and time to reach Cmax (Tmax) were determined from the plasma concentration versus time data. The area under the plasma concentration–time curve from time 0 to infinity concentration (AUC0–∞) was determined using the linear trapezoidal method. The elimination half-life (T1/2) was calculated using ln(2)/ke.
# [2] = test system: EETs, DHETs and HETEs in pancreas homogenates; assay: Targeted metabololipidomics of pancreas homogenates (cerulein AP mice); format: in vivo; settings: not statistically significant
# Method: The extraction of targeted lipid mediators from pancreas was performed as follows: tissues were lyophilized and weighted, 10 mg was homogenized and deproteinized with 500 μL of ice-cold 10% v/v MeOH spiked with labeled standards, and subsequently diluted with 500 μL of phosphate-buffered saline (PBS). Samples were then loaded on solid-phase extraction cartridges, Strata-X reversed-phase SPE columns (100 mg/3 mL) (Phenomenex, Bologna, Italy). Cartridges were conditioned with 3 mL of MeOH and equilibrated with 3 mL of ddH2O. Following loading, washed with 1 mL of 10% MeOH v/v, and finally eluted with 1.5 mL of MeOH. Eluted samples were dried with a SpeedVac (Savant, Thermo Scientific, Milan, Italy) and dissolved prior to UHPLC-MS/MS analyses in 50 μL of UHPLC solvent A.
# The analyses were acquired using a Shimadzu Nexera UHPLC (Kyoto, Japan) coupled online to a triple quadrupole LCMS-8050 (Shimadzu) equipped with an electrospray ionization (ESI) source operating in ESI negative mode. The separation was performed on a Kinetex EVO C18 150 mm × 2.1 mm, 2.6 μm (100 Å) (Phenomenex, Bologna, Italy). The flow rate was set to 0.4 mL/min, and the column oven was set at 40 °C. The mobile phases were, respectively: (A) ACN/H2O 45:55 acidified with 0.02% CH3COOH v/v and (B) ACN/IPA 50:50. The following gradient was used: 0 min, 0%B, 0–12 min 60%B, 12.10 min, 60–99%B, 12.10–13.05 isocratic to 99% B; returning to 0% B in 0.1. MS source parameters: desolvation Line (DL) 250 °C, interface: 300 °C, block heater 350 °C, nebulizing (N2), drying (N2), and heating (Air) gas pressures: 3, 10, 10 L/min. Each analyte was optimized by infusing standard solution at 0.2 mg/mL, multiple reaction monitoring (MRM) mode was used. Detailed MRM parameters are available in Table S3. […]
compound,measurement,setting,value
"CC(C)c1ccc(Cn2ccc3cc(NC(=O)NCC45C[C@H]6C[C@@H](C4)C[C@@H](C5)C6)ccc32)cc1 [Compound 28, 1-(((3R,5R,7R)-Adamantan-1-yl)methyl)-3-(1-(4-isopropylbenzyl)-1H-indol-5-yl)urea]",AUC(0-inf) at 24 h,[1],0.0299 µg·h/mL
same,Cmax at 24 h,[1],4.17 ng/mL
same,Tmax at 24 h,[1],2 h
same,half-life at 24 h,[1],7.6 h
same,change of DHET levels with respect to vehicle,[2],−31.5%
same,change of EETs levels with respect to vehicle,[2],+21.9%
same,"change of HETEs levels (15-HETE, 12-HETE, 5-HETE) with respect to vehicle",[2],−13.4%
